Measurements taken from US20120077704A1, “METHOD FOR SCREENING COMPOUNDS FOR THE TREATMENT OR PREVENTION OF COLON CANCER” (priority 2009, published 2012).

Key:
Caco-2 cells [1] = test: STEM time series analysis of gene expression; format: cell-based, human; settings: for genes whose time-dependent expression correlates with 8-oxodG levels / genes significantly assigned to clusters of gene expression curves / number of different clusters of gene expression curves: STEM; for genes whose time-dependent expression correlates with 8-oxodG levels: log ratio transformed 8-oxodG levels; for genes significantly assigned to clusters of gene expression curves / number of different clusters of gene expression curves: 20 uM H2O2 or 100 uM menadione
Excerpt: For identification of genes co-regulated time-dependently and clustering with the phenotypic parameters, the software tool “Short Time-series Expression Miner” (STEM, version 1.1.2b; http://www.cs.cmu.edu/˜jernst/stem/) was used. […] Profiles are clustered by correlation analyses.

Caco-2 cells [2] = test: Flow cytometric analysis of cell cycle distribution; format: cell-based, human; settings: for percentage of cells in the S phase: 20 uM H2O2 or 100 uM menadione
Protocol: (§1) The Caco-2 human colorectal adenocarcinoma cell line (American Type Culture Collection, Manassas, Va., USA) was grown in Dulbecco's Modified Eagle's Medium supplemented with 10% fetal bovine serum, 1% non-essential amino acids, 1% sodium pyruvate and 1% penicillin/streptomycin, at 37° C., and 5% CO2. Cells were grown until 80% confluency before medium was replaced by DMEM without supplements containing 100 μM menadione or 20 μM H202. For microarray analyses, time-matched control cells were treated in an identical manner without addition of the oxidants. Samples were taken after 0.08, 0.25, 0.5, 1, 2, 4, 8, 16, or 24 hours. […] At the indicated time points, cells were fixed in 2 ml ice cold methanol for flow cytometry or medium was replaced by 1 ml Trizol for RNA/DNA isolation. Analyses of cell cycle profiles and apoptosis was performed as previously described. Cells were stained with propidium iodide; apoptotic cells were visualised by means of the primary antibody M30 CytoDeath (Roche, Penzberg, Germany) and FITC conjugated anti-mouse Ig as secondary antibody (DakoCytomation, Glostrup, Denmark). Data analysis was done using CellQuest software (version 3.1, Becton Dickinson, San Jose, USA). […] Cell cycle profiles were analyzed using ModFit LT for Mac (version 2.0). Data are presented as means ±SD.

Caco-2 cells [3] = test: 8-oxodG analysis (oxidative DNA damage, HPLC-ECD); format: cell-based, human
Protocol: The Caco-2 human colorectal adenocarcinoma cell line (American Type Culture Collection, Manassas, Va., USA) was grown in Dulbecco's Modified Eagle's Medium supplemented with 10% fetal bovine serum, 1% non-essential amino acids, 1% sodium pyruvate and 1% penicillin/streptomycin, at 37° C., and 5% CO2. Cells were grown until 80% confluency before medium was replaced by DMEM without supplements containing 100 μM menadione or 20 μM H202. For microarray analyses, time-matched control cells were treated in an identical manner without addition of the oxidants. Samples were taken after 0.08, 0.25, 0.5, 1, 2, 4, 8, 16, or 24 hours. […] At the indicated time points, cells were fixed in 2 ml ice cold methanol for flow cytometry or medium was replaced by 1 ml Trizol for RNA/DNA isolation. […] Briefly, after extraction, DNA was digested into deoxyribonucleosides by treatment with nuclease P1 [0.02 U/μl] and alkaline phosphatase [0.014 U/μl]. The digest was then injected into a HPLC-ECD-system. […] UV-absorption of dG was simultaneously monitored at 260 nm. Data are presented as means ±SD.

Caco-2 cells [4] = test: MetaCore pathway analysis of differentially expressed genes; format: cell-based, human; settings: for Number of pathways: significant pathways p<0.01, 20 uM H2O2 or 100 uM menadione
Excerpt: The p-Values were all calculated using the basic formula for hypergeometric distribution. The p-Value essentially represents the probability for a particular mapping of an experiment to a pathway to arise by chance, considering the numbers of genes in experiment versus the number of genes in the pathway within the “full set” of all genes in the pathway.

Caco-2 cells [5] = test: Flow cytometric analysis of apoptosis (M30 CytoDeath); format: cell-based, human; settings: 20 uM H2O2 or 100 uM menadione
Protocol: as §1

Caco-2 cells [6] = test: Microarray gene expression, differentially expressed genes; format: cell-based, human; settings: for number of differentially expressed genes: 20 uM H2O2 or 100 uM menadione, all time points up to 24 hours
Protocol: The Caco-2 human colorectal adenocarcinoma cell line (American Type Culture Collection, Manassas, Va., USA) was grown in Dulbecco's Modified Eagle's Medium supplemented with 10% fetal bovine serum, 1% non-essential amino acids, 1% sodium pyruvate and 1% penicillin/streptomycin, at 37° C., and 5% CO2. Cells were grown until 80% confluency before medium was replaced by DMEM without supplements containing 100 μM menadione or 20 μM H202. For microarray analyses, time-matched control cells were treated in an identical manner without addition of the oxidants. […] At the indicated time points, cells were fixed in 2 ml ice cold methanol for flow cytometry or medium was replaced by 1 ml Trizol for RNA/DNA isolation. Labelling and hybridisation of RNA samples were done according to Agilent's manual for microarrays with minor modifications ((Agilent Technologies, Breda, The Netherlands). RNA (0.5 μg) was transcribed into cDNA and labelled with Cyanine 3 (Cy3) or Cyanine 5 (Cy5). When dye-incorporation was above 7 pmol/μg RNA, 2 μg cRNA of the treated and time-matched control samples was applied on […] 22K and […] 4×44K Agilent Human Oligo Microarray. Slides were scanned on a GenePix 4000B (Molecular Devices, Sunnyvale, USA) with fixed laser power (100%) and PMT gain. For each exposure, two biological repeats per time point were performed. Also swapped Cy3 and Cy5 dye labelling was done, resulting in 72 hybridisations. Images were processed with ImaGene 6.0 software (BioDiscovery Inc., Los Angeles, USA) to quantify spot signals. Irregular spots were flagged. Data from ImaGene were transported into GeneSight software version 4.1.6 (BioDiscovery Inc., Los Angeles, USA). For each spot background was subtracted and flagged spots as well as spots with a net expression level below 20 in both channels were omitted. Data were log base 2 transformed and LOWESS normalization was applied. Expression difference with the time-matched control was calculated and if more than one probe of a gene was present on the array, the replicates were combined while omitting outliers (>2 standard deviations). Only the probe sets present at both types of array platforms were selected. […] The webtool GenePattern (http://genepattern.broad.mit.edu/gp/pages/index.jsf) was used for clustering and visualization of heat maps and cluster patterns.

Caco-2 cells [7] = test: ESR spectroscopy of cellular radical formation (DMPO spin trap); format: cell-based, human
rat hepatocytes = settings: up to 2 hours after incubation; cited from earlier work
Caco-2 cells [8] = settings: 75 μM H2O2, 30 minutes incubation time; cited from earlier work
[9] = tested on: steroid 5-alpha reductase; settings: inhibition of steroid 5-alpha reductase; cited from earlier work

Row | Compound | genes whose time-dependent expression correlates with 8-oxodG levels (Caco-2 cells [1]) [genes] | genes significantly assigned to clusters of gene expression curves (Caco-2 cells [1]) [genes] | number of different clusters of gene expression curves (Caco-2 cells [1]) [clusters] | genes clustered by STEM with cell cycle phase (Caco-2 cells [1]; cell cycle phase G1) | significant pathways of genes clustered with cell cycle phase (Caco-2 cells [1]; cell cycle phase G1, p<0.01) | genes clustered by STEM with cell cycle phase (Caco-2 cells [1]; cell cycle phase G2/M) | significant pathways of genes clustered with cell cycle phase (Caco-2 cells [1]; cell cycle phase G2/M, p<0.01) | genes clustered by STEM with cell cycle phase (Caco-2 cells [1]; cell cycle phase S) | significant pathways of genes clustered with cell cycle phase (Caco-2 cells [1]; cell cycle phase S, p<0.01) | percentage of cells in the S phase (Caco-2 cells [2]; 24 h) | Number of pathways (Caco-2 cells [4]; time 0.08 hrs) | Number of pathways (Caco-2 cells [4]; time 0.25 hrs) | Number of pathways (Caco-2 cells [4]; time 0.5 hrs) | Number of pathways (Caco-2 cells [4]; time 1 hrs) | Number of pathways (Caco-2 cells [4]; time 2 hrs) | Number of pathways (Caco-2 cells [4]; time 4 hrs) | Number of pathways (Caco-2 cells [4]; time 8 hrs) | Number of pathways (Caco-2 cells [4]; time 16 hrs) | Number of pathways (Caco-2 cells [4]; time 24 hrs) | number of differentially expressed genes (Caco-2 cells [6]) [genes] | also measured
1 | CC1=CC(=O)c2ccccc2C1=O [menadione] | 3 | 680 | 4 | 311 | 15 | 1 | 0 | 74 | 4 | significant increase | 18 | 16 | 14 | 15 | 8 | 10 | 14 | 19 | 18 | 979 | Number of pathways of the gene expression cluster profile (Caco-2 cells [1]; menadione, STEM cluster 0, p<0.01): 12; Number of pathways of the gene expression cluster profile (Caco-2 cells [1]; menadione, STEM cluster 1, p<0.01): 18; Number of pathways of the gene expression cluster profile (Caco-2 cells [1]; menadione, STEM cluster 2, p<0.01): 4; Number of pathways of the gene expression cluster profile (Caco-2 cells [1]; menadione, STEM cluster 3, p<0.01): 8; cells of the G1 phase (Caco-2 cells [2]; 24 h, 100 uM menadione): significant decrease; time of highest significantly increased level of 8-oxodG (Caco-2 cells [3]; 100 uM menadione): 2 h; 8-oxodG level at 15 minutes (Caco-2 cells [3]; 100 uM menadione, 15 minutes, much lower than H2O2 at 15 minutes): significant increased level; time after which the WNT signalling pathway is induced (Caco-2 cells [4]; menadione exposure): 1 h; number of pathways significantly induced exclusively by the oxidant (Caco-2 cells [4]; p < 0.01): 24; induction of apoptosis (Caco-2 cells [5]): absence of apoptosis; recovery of the gene expression response (Caco-2 cells [6]; up to 24 hours): no recovery; O2.-derived DMPO.-OH signal (Caco-2 cells [7]; 100 uM, 45 minutes incubation time): showed an O2.-derived DMPO.-OH signal; 8-oxodG formation (rat hepatocytes): absence of 8-oxodG formation
2 | OO [H2O2, hydrogen peroxide] | 8 | 998 | 6 | 29 | 0 | 45 | 1 | 1 | 0 | significantly decreased | 8 | 15 | 17 | 6 | 4 | 5 | 8 | 5 | 6 | 1404 | affected genes selected out of 12931 genes (Caco-2 cells [8]): 87 genes; Number of pathways of the gene expression cluster profile (Caco-2 cells [1]; H2O2, STEM cluster 0, p<0.01): 4; Number of pathways of the gene expression cluster profile (Caco-2 cells [1]; H2O2, STEM cluster 1, p<0.01): 1; Number of pathways of the gene expression cluster profile (Caco-2 cells [1]; H2O2, STEM cluster 2, p<0.01): 9; Number of pathways of the gene expression cluster profile (Caco-2 cells [1]; H2O2, STEM cluster 3, p<0.01): 1; Number of pathways of the gene expression cluster profile (Caco-2 cells [1]; H2O2, STEM cluster 4, p<0.01): 3; Number of pathways of the gene expression cluster profile (Caco-2 cells [1]; H2O2, STEM cluster 5, p<0.01): 4; number of cells in G1 phase (Caco-2 cells [2]; 16 h after exposure, compared to control cells): significantly decreased; percentage of cells in the G1/M phase (Caco-2 cells [2]; 24 h, 20 uM H2O2): significantly increased; 8-oxodG level at 16 hours after exposure (Caco-2 cells [3]; 20 uM H2O2, 16 hours): significantly elevated; time of significantly increased peak in 8-oxodG (Caco-2 cells [3]; 20 uM H2O2, compared to control cells): 15 min; induction of the WNT signalling pathway (Caco-2 cells [4]; H2O2 exposure): immediately; recovery of the gene expression response (Caco-2 cells [6]; pulse-like response towards H2O2): ≤ 1 h; cellular HO. formation (DMPO.-OH) (Caco-2 cells [7]; increasing concentrations of H2O2): dose-dependent formation of DMPO.-OH
3 | CC(C)(C)NC(=O)[C@H]1CC[C@H]2[C@@H]3CC[C@H]4NC(=O)C=C[C@]4(C)[C@H]3CC[C@]12C [finasteride] | – | – | – | – | – | – | – | – | – | – | – | – | – | – | – | – | – | – | – | – | effect on cellular H2O2 production [9]: enhancement of cellular H2O2 production
